The results in this text go back to patent publication US5589486A, “N-hydroxyalkyl-substituted 1,2,3,6-tetrahydro-pyridine and piperidine derivatives” (Richter Gedeon Vegyeszeti Gyar Rt., priority 1991, dated 1996).

For series [1], the system named is cytotoxic hypoxia in mice. Put plainly: Cytotoxic hypoxia test (potassium cyanide i.v., survival time). It counts as in vivo, mice (male CFLP). The note with it: in words.
Series [2] relates to hypobaric hypoxia in SH rats. As to the kind of experiment: Hypobaric hypoxia test (170 mmHg, survival time). It counts as in vivo, spontaneously hypertensive (SH) male rats. The note with it: in words. The procedure: (§1) Male CFLP mice (from the Hungarian stock LATI) weighing 24-26 g each and spontaneously hypertensive (SH) male rats weighing 160-180 g each, respectively were used in these investigations. The compounds to be tested were orally administered in a volume of 10 ml/kg one hour prior to starting the experiment.
After a 16-hour starving and 1-hour pretreatment period, the animals were placed in a desiccator of 6 liters volume, where the pressure was decreased to 170 mmHg within 20 seconds. The survival time was registered from this time point up to the last respiratory movement of the animals. Animals having a survival time longer by 30% than the average survival time of the control group were considered to be protected. The ED50 values were calculated from the percentage of the animals protected by using probit analysis.
Various forms of hypoxia were used for investigating the compounds. The functional disorganization and destruction of cells and death, respectively in otherwise healthy mice are caused by a decrease in the oxygen-saturation of haemoglobin in the hypobaric hypoxia and the inhibition of the mitochondrial respiratory enzyme in the cytotoxic hypoxia. Spontaneously hypertensive (SH) rats are more sensitive against hypoxic conditions than normotensive animals; similarly, patients suffering from hypertension have a less chance of survival after hypoxic injuries.

In a further series the test system is hypoxia. Put plainly: Antihypoxic effect, cytotoxic and hypobaric hypoxia tests taken together. The note with it: comparison of effects between tests, in words. It is filed as in vivo, mice; spontaneously hypertensive (SH) rats. The procedure:
as §1
After a 1-hour pretreatment, the animals were intravenously injected with 5 mg/kg of potassium cyanide. Survival time was measured as an interval lasting from the administration of potassium cyanide to the last respiratory movement. In the groups consisting of 10 animals each treated with the compounds, the animals having a survival time longer by 30% than the average survival time of the placebo-treated group were considered to be protected. The ED50 values (i.e. the doses being effective in 50% of the animals) were calculated from the percentage of the surviving animals by using probit analysis.
After a 16-hour starving and 1-hour pretreatment period, the animals were placed in a desiccator of 6 liters volume, where the pressure was decreased to 170 mmHg within 20 seconds. The survival time was registered from this time point up to the last respiratory movement of the animals. […] The ED50 values were calculated from the percentage of the animals protected by using probit analysis. […]

Series [3] in a line: Acute toxicity study in mice. Further details: species or system mice (OF-1, either sex). The note with it: mouse, in vivo, po, maximal dose 1000 mg/kg. The procedure:
OF-1 mice of either sex weighing 19-21 g were used. The test compound was administered through a catheter inserted into the stomach. A series of solutions was prepared, the concentrations were chosen to give a constant dosage volume of 0.1 ml/10 g. The observation time after the treatment was 72 hours. The LD50 value was calculated according to Litchfield and Wilcoxon from six dose responses (maximal dose 1000 mg/kg p.o., n=10).

Setting [4] is: 72 h observation, Litchfield and Wilcoxon, read-out: LD50.

Structures are written as SMILES. Read-outs that look alike come from different tables or passages of the source. Where only a bound is given, the exact number is not on record here.

Consider `CC[C@]12CCCN3CCc4c(n(c5ccccc45)[C@@](O)(C(=O)OC)C1)[C@@H]32` [Vincamine, (+)-14β-hydroxy-14α-methoxycarbonyl-14,15-dihydroeburnamenine], for which the “antihypoxic effect in cytotoxic hypoxia” value in series [1] is recorded as “most pronounced in cytotoxic hypoxia”. Also, the “action in hypobaric hypoxia” value in series [2] is “prominent tolerance-enhancing action in hypobaric hypoxia”.

Take `NC(=O)CN1CCCC1=O` [Piracetam, 2-oxo-1-pyrrolidinylacetic acid amide, reference compound]: in the series with hypoxia, the “antihypoxic effect in the various tests of hypoxia” value was “exerts its effect in the same two tests”.

As a reminder, the LD50 is the dose expected to kill half of the subjects tested. For the compound `OC(CCN1CCC(c2ccccc2)CC1)c1ccc(Cc2ccc(Cl)cc2)cc1` (stereo not shown) [B, 1-[4-(4-chlorobenzyl)phenyl]-3-(4-phenyl-1-piperidyl)propanol], the LD50 at 72 h in series [3] amounted to 697 mg/kg.

With `OC(CN1CC=C(c2ccccc2)CC1)c1ccc(Cc2ccc(Cl)cc2)cc1` (stereo not shown) [A, 1-[4-(4-Chlorobenzyl)phenyl]-2-(4-phenyl-1,2,3,6-tetrahydro-1-pyridyl)ethanol], the LD50 at 72 h in series [3] (setting [4]) is over 1000 mg/kg. For the same compound, the “antihypoxic effect in the various tests of hypoxia” value in the series with hypoxia is recorded as “its effects are the same in the various tests of hypoxia”.

Take `OC(CCN1CC=C(c2ccc(Cl)cc2)CC1)c1ccc(Cl)cc1Cl` (stereo not shown) [E, 3-[4-(4-Chlorophenyl)-1,2,3,6-tetrahydro-1-pyridyl]-1-(2,4-dichlorophenyl)propanol]: the 50% lethal dose (LD50) at 72 h in series [3] (setting [4]) was over 1000 mg/kg.
